The values that follow are results of earlier work, collected in patent publication US6026817A, “Method of treating the syndrome of coronary heart disease risk factors in humans” (priority 1998, dated 2000).

The test system of data set [1] is experimental brain trauma. As to conditions: in vivo; cited from earlier work.
A further data set has as its system adult male rats. To be noted: intracisternal administration, conscious rats, dose related; cited from earlier work.

As to `Oc1ccc2c3c1O[C@H]1c4[nH]c5c(c4C[C@@]4(O)[C@@H](C2)N(CC2CC2)CC[C@]314)C[C@@]1(O)[C@H]2Cc3ccc(O)c4c3[C@@]1(CCN2CC1CC1)[C@H]5O4` [nor-binaltorphimine], the “outcome after experimental brain trauma” value in data set [1] is “improves the outcome”. “β-endorphin: synthetic human β-endorphin (YGGFMTSEKSQTPLVTLFKNAIIKNAYKKGE; Beta-endorphin; UniProt P01189 237-267, looked up)”: in the data set with adult male rats, the “plasma concentrations of catecholamines” value is “increased plasma concentrations of epinephrine, norepinephine, and dopamine”.
